Experimental data from patent publication US20100035941A1, “METHODS FOR INCREASING BLOOD FLOW AND/OR PROMOTING TISSUE REGENERATION” (priority 2006, published 2010).
Values joined by “and” are separate entries in the source; they are usually repeats but may differ in a detail not shown here. Equal values may be shown once. Read-outs that look alike come from different tables or passages of the source.

Columns and labels:
[1] = system: granulocyte macrophage (CFU-GM), erythroid (BFU-E), and multipotential (CFU-GEMM) progenitor cells; settings: mice; for Absolute Number Progenitors Per ML Blood, Methylcellulose Culture, BFU-E / Absolute Number Progenitors Per ML Blood, Methylcellulose Culture, CFU-GEMM / Absolute Number Progenitors Per ML Blood, Methylcellulose Culture, CFU-GM: 1 hour post administration; for Absolute Progenitors Per ML Blood, Methylcellulose Culture, BFU-E / Absolute Progenitors Per ML Blood, Methylcellulose Culture, CFU-GEMM / Absolute Progenitors Per ML Blood, Methylcellulose Culture, CFU-GM: single s.c. injection of 5 mg/Kg
Method: Progenitors were stimulated to form colonies in vitro with the combination of 1U/ml rhu Epo, 50 ng/ml rhu SLF, 5% Vol/Vol pokeweed mitogen mouse spleen cell conditioned medium (PWMSCM), and 0.1 mM hemin. Plates were scored 7 days after incubation.

[2] = system: CD34 positive progenitor cells; settings: human volunteers; single s.c. 80 μg/kg
Method: (§1) Five healthy human volunteers having initial white blood cell counts of 4,500-7,500 cells/mm^3 were used in the study. […] Blood samples were obtained via catheter prior to the dose, and at various times up to 24 hours after dosing.
(§2) The blood samples were evaluated for total white blood cells, CD34 positive progenitor cells (via FACS analysis) as a percentage of total white blood cells, as well as the absolute numbers per mL and cycling status of granulocyte macrophage (CFU-GM), erythroid (BFU-E), and multipotential (CFU-GEMM) progenitor cells.

white blood cells = settings: single s.c. 80 μg/kg
Method: as §1, §2

[3] = system: nucleated cells per ml of blood; settings: average of 5 donors, s.c. 80 μg/kg
Method: as §1
All progenitor cell results are based on the scoring of 3 culture plates per assay per point.

[4] = system: progenitors in DNA synthesis (S) phase of the cell cycle; settings: for BFU-E Cycling Status of Progenitors / CFU-GEMM Cycling Status of Progenitors / CFU-GM Cycling Status of Progenitors: % progenitors in S phase; for BFU-E Cycling Status of Progenitors / CFU-GEMM Cycling Status of Progenitors / CFU-GM Cycling Status of Progenitors / AGAR Culture CFU-GM Cycling Status of Progenitors: s.c. 80 μg/kg
Method: For the progenitor cell numbers and cycling status, the numbers of CFU-GM, BFU-E and CFU-GEMM in methylcellulose cultures by stimulation of the cells with 1 Unit (U)/ml recombinant human (rhu) erythropoietin, 100 U/ml rhu granulocyte-macrophage colony stimulating factor (GM-CSF), 100 U/ml rhu interleukin-3 (IL-3) and 50 ng/ml rhu steel factor (SLF=stem cell factor (SCF)). The CFU-GM were also evaluated in agar cultures stimulated with 100 U/ml rhu GM-CSF and 50 ng/ml rhu SLF. For both types of assays, colonies were scored after 14 day incubation in a humidified atmosphere with 5% CO2 and lowered (5%) O2 tension. Cell cycling status of progenitors was measured using a high specific activity tritiated thymidine kill technique as previously described (Broxmeyer, H. E., et al., Exp. Hematol. (1989) 17:455-459).

ischemic hind limb = test: Tissue regeneration in diabetic animal ischemic model: limb blood flow restoration, LASER Doppler; format: in vivo, male nude Hfh11 mice; settings: diabetic mice
Method: Three to four weeks after injection of STZ the left hind limb was made ischemic by ligation of the iliac artery and removal of a 0.5-1 cm segment distal to the ligation.
One group of additional mice (n=11) was injected intramuscularly into the ischemic hindlimb with human non-diabetic-derived unmobilized CD34+ (unCD34+) peripheral blood mononuclear cells (PBMCs), two to four hours after surgery. […] Untreated mice served as controls (n=10).
Limb blood flow restoration was analyzed immediately before and after surgery and at various times thereafter in the entire limb distal to the ligation using LASER Doppler analysis.

progenitor cells = settings: AMD3100 5 mg/Kg s.c. plus MIP-1α 5 μg I.V., 11 hours after rhu G-CSF or saline, 1 hour prior to assessing the blood
Method: Groups of mice were randomized to receive control diluent (saline) or G-CSF at a dose of 2.5 μg per mouse, twice a day, for two days via s.c. injection. […] One hour later, the mice were sacrificed and the number of progenitor cells per mL of blood were measured.

bone marrow stem cells = settings: rats; coronary ligation; injected within 4 to 6 hours, with or without rhG-CSF
Method: Adult rats are anesthetized and a thoracotomy is performed. The descending branch of the left coronary artery is ligated and not reperfused. […] Control rats are not treated with the reagents. The animals are monitored at one-week intervals by echocardiography and MRI. The experiment is terminated at 2, 6 to 12 weeks post-surgery. On the day of sacrifice, the hemodynamic functions are analyzed for left ventricle-end diastolic pressure, left ventricle-developed pressure and the rate of rise and fall of left ventricle pressure. The heart is then arrested in diastole and perfused via the abdominal aorta to flush residual blood from the vascular network of the myocardium. This is followed by perfusion of the heart with 10% formalin. Several slices are made through the fixed heart and these are embedded in paraffin and sections. The sections are stained and analyzed by light microscopy to determine the size of the infarct in the treated and control animals. Tissue sections from hearts taken at 2 weeks after surgery are stained with antibodies specific for immature, developing myocyte and blood vessel proteins and analyzed by confocal microscopy. The immunohistochemical analysis involves the identification of transcription factors and surface markers expressed in early stages of myocyte development.

WBC = settings: Phase 1 study; single dose of 80 μg/kg; cited from earlier work
[5] = system: circulating CD34+ progenitor/stem cells; settings: Phase 1 study; single dose of 80 μg/kg; 6 hour time point; cited from earlier work
[6] = single s.c. injection 2.5 mg/kg
[7] = individual donors P1-P5, T = 1 hour
[8] = individual donors P1-P5, T = 3 hours
[9] = individual donors P1-P5, T = 6 hours
[10] = individual donors P1-P5, T = 9 hours
[11] = individual donors P1-P5, T = 24 hours
[12] = ischemic hind limb, 5 mg/kg intraperitoneally on days 0 and 2

SMILES: c1cc(CN2CCCNCCNCCCNCC2)ccc1CN1CCCNCCNCCCNCC1 [AMD3100, 1,1′-[1,4-phenylene-bis(methylene)]-bis-1,4,8,11-tetraazacyclotetradecane]
- Fold Change Compared to Time 0, Progenitors, Methylcellulose Culture, BFU-E ([1]; Time 2′): 2.07
- Fold Change Compared to Time 0, Progenitors, Methylcellulose Culture, CFU-GEMM ([1]; Time 2′): 1.85
- Fold Change Compared to Time 0, Progenitors, Methylcellulose Culture, GM ([1]; Time 2′): 2.86
- Fold Change Compared to Time 0, Progenitors, Methylcellulose Culture, BFU-E ([1]; Time 15″): 2.72
- Fold Change Compared to Time 0, Progenitors, Methylcellulose Culture, CFU-GEMM ([1]; Time 15″): 3.51
- Fold Change Compared to Time 0, Progenitors, Methylcellulose Culture, GM ([1]; Time 15″): 2.73
- Fold Change Compared to Time 0, Progenitors, Methylcellulose Culture, BFU-E ([1]; Time 30″): 4.24
- Fold Change Compared to Time 0, Progenitors, Methylcellulose Culture, CFU-GEMM ([1]; Time 30″): 4.41
- Fold Change Compared to Time 0, Progenitors, Methylcellulose Culture, GM ([1]; Time 30″): 6.23
- Absolute Number Progenitors Per ML Blood, Methylcellulose Culture, BFU-E ([1]; single s.c. injection 1 mg/kg): 62 Per ML Blood
- Absolute Number Progenitors Per ML Blood, Methylcellulose Culture, CFU-GEMM ([1]; single s.c. injection 1 mg/kg): 27.1 Per ML Blood
- Absolute Number Progenitors Per ML Blood, Methylcellulose Culture, CFU-GM ([1]; single s.c. injection 1 mg/kg): 424 Per ML Blood
- Absolute Number Progenitors Per ML Blood, Methylcellulose Culture, BFU-E [1, 6]: 98.9 Per ML Blood
- Absolute Number Progenitors Per ML Blood, Methylcellulose Culture, CFU-GEMM [1, 6]: 70.6 Per ML Blood
- Absolute Number Progenitors Per ML Blood, Methylcellulose Culture, CFU-GM [1, 6]: 687.6 Per ML Blood
- Absolute Number Progenitors Per ML Blood, Methylcellulose Culture, BFU-E ([1]; single s.c. injection 5 mg/kg): 92.8 Per ML Blood
- Absolute Number Progenitors Per ML Blood, Methylcellulose Culture, CFU-GEMM ([1]; single s.c. injection 5 mg/kg): 69.5 Per ML Blood
- Absolute Number Progenitors Per ML Blood, Methylcellulose Culture, CFU-GM ([1]; single s.c. injection 5 mg/kg): 608.4 Per ML Blood
- Absolute Number Progenitors Per ML Blood, Methylcellulose Culture, BFU-E ([1]; single s.c. injection 10 mg/kg): 120.5 Per ML Blood
- Absolute Number Progenitors Per ML Blood, Methylcellulose Culture, CFU-GEMM ([1]; single s.c. injection 10 mg/kg): 79.8 Per ML Blood
- Absolute Number Progenitors Per ML Blood, Methylcellulose Culture, CFU-GM ([1]; single s.c. injection 10 mg/kg): 825.6 Per ML Blood
- Absolute Progenitors Per ML Blood, Methylcellulose Culture, BFU-E ([1]; 15″): 134.5 Per ML Blood
- Absolute Progenitors Per ML Blood, Methylcellulose Culture, CFU-GEMM ([1]; 15″): 90.4 Per ML Blood
- Absolute Progenitors Per ML Blood, Methylcellulose Culture, CFU-GM ([1]; 15″): 791.6 Per ML Blood
- Absolute Progenitors Per ML Blood, Methylcellulose Culture, BFU-E ([1]; 30″): 209.3 Per ML Blood
- Absolute Progenitors Per ML Blood, Methylcellulose Culture, CFU-GEMM ([1]; 30″): 113.5 Per ML Blood
- Absolute Progenitors Per ML Blood, Methylcellulose Culture, CFU-GM ([1]; 30″): 1805.5 Per ML Blood
- Absolute Progenitors Per ML Blood, Methylcellulose Culture, BFU-E ([1]; 120″): 102.3 Per ML Blood
- Absolute Progenitors Per ML Blood, Methylcellulose Culture, CFU-GEMM ([1]; 120″): 47.6 Per ML Blood
- Absolute Progenitors Per ML Blood, Methylcellulose Culture, CFU-GM ([1]; 120″): 528.7 Per ML Blood
- time post-administration at which elevation of CD34 positive progenitor cells maximized [2]: 6 h
- time post-administration at which elevation of the white blood cell count maximized (white blood cells; human volunteers): 6 h
- mobilization of white blood cells in individual volunteers (white blood cells; 2 Hr, volunteers P1-P5): 12.4 × 10^3 WBC's and 21.4 × 10^3 WBC's and 13.5 × 10^3 WBC's
- Fold Change Compared to TIME = 0, nucleated cellularity PBL-LD, MEAN ([3]; T = 1 hour): 1.86
- Fold Change Compared to TIME = 0, nucleated cellularity PBL-US, MEAN ([3]; T = 1 hour): 1.69
- nucleated cellularity PBL-LD, % CHG ([3]; T = 1 hour): 86.2%
- nucleated cellularity PBL-US, % CHG ([3]; T = 1 hour): 68.6%
- Fold Change Compared to TIME = 0, nucleated cellularity PBL-LD, MEAN ([3]; T = 3 hours): 2.86
- Fold Change Compared to TIME = 0, nucleated cellularity PBL-US, MEAN ([3]; T = 3 hours): 2.80
- nucleated cellularity PBL-LD, % CHG ([3]; T = 3 hours): 185.6%
- nucleated cellularity PBL-US, % CHG ([3]; T = 3 hours): 180.2%
- Fold Change Compared to TIME = 0, nucleated cellularity PBL-LD, MEAN ([3]; T = 6 hours): 3.66
- Fold Change Compared to TIME = 0, nucleated cellularity PBL-US, MEAN ([3]; T = 6 hours): 3.26
- nucleated cellularity PBL-LD, % CHG ([3]; T = 6 hours): 266.3%
- nucleated cellularity PBL-US, % CHG ([3]; T = 6 hours): 225.8%
- Fold Change Compared to TIME = 0, nucleated cellularity PBL-LD, MEAN ([3]; T = 9 hours): 3.64
- Fold Change Compared to TIME = 0, nucleated cellularity PBL-US, MEAN ([3]; T = 9 hours): 3.09
- nucleated cellularity PBL-LD, % CHG ([3]; T = 9 hours): 264.3%
- nucleated cellularity PBL-US, % CHG ([3]; T = 9 hours): 209.4%
- Fold Change Compared to TIME = 0, nucleated cellularity PBL-LD, MEAN ([3]; T = 24 hours): 1.05
- Fold Change Compared to TIME = 0, nucleated cellularity PBL-US, MEAN ([3]; T = 24 hours): 1.07
- nucleated cellularity PBL-LD, % CHG ([3]; T = 24 hours): 4.6%
- nucleated cellularity PBL-US, % CHG ([3]; T = 24 hours): 7.0%
- BFU-E Cycling Status of Progenitors [4, 7]: 3% and 0% (4×)
- CFU-GEMM Cycling Status of Progenitors [4, 7]: 6% and 0% (4×)
- CFU-GM Cycling Status of Progenitors [4, 7]: 1% and 0% (4×)
- CFU-GEMM Cycling Status of Progenitors [4, 8]: 0% (4×) and 7%
- BFU-E Cycling Status of Progenitors [4, 9]: 0% (4×) and 1%
- CFU-GEMM Cycling Status of Progenitors [4, 9]: 0% (4×) and 8%
- CFU-GM Cycling Status of Progenitors [4, 9]: 0%
- BFU-E Cycling Status of Progenitors [4, 10]: 0% (4×) and 11%
- CFU-GEMM Cycling Status of Progenitors [4, 10]: 4% and 0% (4×)
- CFU-GM Cycling Status of Progenitors [4, 10]: 2% and 0% (4×)
- BFU-E Cycling Status of Progenitors [4, 11]: 2% and 0% (3×) and 3%
- CFU-GEMM Cycling Status of Progenitors [4, 11]: 0%
- CFU-GM Cycling Status of Progenitors [4, 11]: 0% (3×) and 3% and 5%
- AGAR Culture CFU-GM Cycling Status of Progenitors [4, 7]: 3% and 0% (4×)
- AGAR Culture CFU-GM Cycling Status of Progenitors [4, 8]: 0% (4×) and 1%
- AGAR Culture CFU-GM Cycling Status of Progenitors [4, 9]: 1% and 0% (2×) and 3% (2×)
- AGAR Culture CFU-GM Cycling Status of Progenitors ([4]; individual donors P2-P5, T = 9 hours): 0%
- AGAR Culture CFU-GM Cycling Status of Progenitors ([4]; individual donors P2-P5, T = 24 hours): 0%
- cycling state of progenitors ([4]; prior to and 1, 3, 6, 9 and 24 hours after injection, human donors): slow or non-cycling state
- time at which drug induced improvement was observed (ischemic hind limb; [12]): two
- time by which blood flow had reached its maximum (ischemic hind limb; [12]): seven
- blood flow maintained, mean % of the initial flow (plateau) (ischemic hind limb; ischemic hind limb, 5 mg/kg intraperitoneally on the day of and two days after surgery, mean flow d8-d24): 74.6±2.8%
- overall effect of systemic therapy on blood flow restoration (ischemic hind limb; ischemic limb, systemic (intraperitoneal) treatment): accelerated blood flow restoration, but did not increase it
- mobilization of progenitor cells in combination with mu MIP-1α (progenitor cells): additive to greater than additive
- expected effect on ischemic myocardium (bone marrow stem cells): will lead to regeneration of the dead myocardium
- WBC count (WBC): 17,000 /μl
- peak increase in circulating CD34+ progenitor/stem cells [5]: 6 fold
